Measurements from patent US10981953B2, “Method for promoting expression of calreticulin, and synthetic peptide for use in method for promoting expression of calreticulin” (TOAGOSEI CO., LTD., priority 2013, dated 2021).

What was measured:
[1] = system: BXM14 cells, a cultured cell line of mouse ES cells; assay: Calreticulin expression-promoting activity in ES cells, immunofluorescent antibody technique (Example 4); format: cell-based; conditions: mouse ES cells BXM14, peptide 50 μM, 3 days culture, confocal laser microscopy
Protocol: The calreticulin expression-promoting activity of the Samples 1 to 12 obtained in Example 1 was investigated. BXM14 cells, a cultured cell line of mouse ES cells (hereunder sometimes called “BXM14”), were used as the test cells. The details of the evaluation test were as follows.
The sample ES cells (BXM14) were seeded to a cell density of about 1×10^4 cells per well on 4-well slides. Using DMEM medium (Wako Pure Chemical, Cat No. 043-30085) containing 15% Knockout™ Serum Replacement (hereunder sometimes called “KSR”; Life Technologies, Cat No. 10828), 0.1 mM Non-essential Amino Acids Solution (hereunder sometimes called “NEAA”; Wako Pure Chemical, Cat No. 139-15651), 0.1 mM 2-mercaptoethanol (Sigma-Aldrich, Cat No. M7522) and 1000 units/mL of StemSure™ LIF, Mouse, recombinant, Solution (hereunder sometimes called “mLIF”; Wako Pure Chemical, Cat No. 199-116051), the cells were cultured overnight in an incubator under conditions of 5% CO2, 37° C. The DMEM medium containing KSR, NEAA, 2-mercaptoethanol and mLIF is also called simply “ES DMEM medium”. […]
(§1) These figures (images) are fluorescence micrographs examining calreticulin expression in each test group, and each combines (merges) a fluorescent image showing results for calreticulin expression in ES cells as measured by the immunofluorescent antibody technique with an image showing nuclear staining by DAPI.

[2] = system: iPS cells (clone name 201B2); assay: Calreticulin expression-promoting activity in iPS cells, immunofluorescent antibody technique (Example 3); format: cell-based; conditions: human iPS cells 201B2, peptide 10 μM, 5 days culture, confocal laser microscopy
Protocol: The calreticulin expression-promoting activity of the Samples 1 to 12 obtained in Example 1 was investigated. iPS cells (clone name 201B2, sometimes called simply 201B2 below) established from human fibroblasts were used as the test cells (source: Takahashi K et al., Cell, 131, 861-872 (2007)). These iPS cells were supplied by the Center for iPS Cell Research and Application, Kyoto University.
The test iPS cells (201B2) were seeded to a cell density of about 1×10^4 cells per well on matrigel-coated 8-well slides. Using mTeSR™ 1 medium (Stemcell Technologies) as the medium, the cells were cultured overnight in an incubator under conditions of 5% CO2, 37° C. Following this overnight culture, fresh mTeSR™ medium containing the peptides of Samples 1 to 12 in an amount yielding a peptide concentration of 10 μM was substituted, and the cells were further cultured for 5 days under the same conditions. Every day during this 5-day culture period, the medium was replaced with mTeSR™ 1 medium containing the peptides of Samples 1 to 12 in an amount yielding a peptide concentration of 10 μM. A peptide-free group was established as a control.
After completion of this culture, calreticulin expression in each test group was investigated by the immunofluorescent antibody technique (fluorescent immunostaining) using an anti-calreticulin antibody as in Example 2 except that a mixed solution of 1 vol. methanol and 1 vol. acetone (methanol:acetone=1:1 solution) was used to fix the cells, and the final concentration of the primary antibody was adjusted to 4×10^−3 mg/mL.
as §1, with “figures” for “figures (images)”, “iPS” for “ES”

[3] = system: HeLaS3 cells; assay: Calreticulin expression-promoting activity in tumor cells, immunofluorescent antibody technique (Example 2); format: cell-based, human; conditions: peptide 10 μM, 5 days culture, confocal laser microscopy
Excerpt: The calreticulin expression-promoting activity of the peptides of the Samples 1 to 12 obtained in Example 1 above was investigated. The sample cells were HeLaS3 cells (ATCC CCL2.2), a cultured cell line derived from human cervical cancer. These HeLaS3 cells (ATCC CCL2.2) are known as a genomically unstable cultured cell line, which has been confirmed to have multiple chromosome duplications or in other words chromosomal abnormalities (karyotypic abnormalities). The details of the evaluation test are as follows.
HeLaS3 cells were seeded on 8-well slides to a cell density of about 1×10^3 cells per well. […]
A diluted primary antibody solution comprising an anti-calreticulin monoclonal [FMC75] antibody (from mouse, Abcam, Cat. No. ab22683, Lot No. GR56669-4) as the primary antibody prepared with 1% BSA/PBS (−) (PBS (−) containing 1% BSA) to a final concentration of 2.5×10^−3 mg/mL was added to the culture containers of the HeLaS3 cells, and left overnight at 4° C. […] This was then sealed with a cover glass together with an enclosed liquid containing DAPI (4′,6-diamidino-2-phenylindole) (Life Technologies), and fluorescence was observed by confocal laser microscopy. […]

| Sequence | fluorescence of the fluorescent label indicating calreticulin (expressed amount of calreticulin) compared with the peptide-free group and Sample 12 [2] | also measured |
| --- | --- | --- |
| CRAKAGDPC [Sample 1] |  | fluorescence of the fluorescent label indicating calreticulin (amount of calreticulin expression) compared with the peptide-free group and Sample 12 [1]: stronger fluorescence |
| KKRTLRKNDRKKR CRAKAGDPC (KKRTLRKNDRKKRCRAKAGDPC) [Sample 9] | stronger fluorescence |  |
| KKRTLRKNDRKKR GPRPPSLEC (KKRTLRKNDRKKRGPRPPSLEC) [Sample 11] | strong fluorescence |  |
| KKRTLRKNDRKKR NPGASF (KKRTLRKNDRKKRNPGASF) [Sample 10] | strong fluorescence |  |
| LAARAVRFSEKV [Sample 12] |  | fluorescence of the fluorescent label indicating calreticulin (expressed amount of calreticulin) compared with the peptide-free group [3]: almost no fluorescence was detected |
